Laboratory results: US8212050B2, “Amidine compounds and herbicides” (Nippon Soda Co., Ltd., priority 2005, dated 2012)

Structure (SMILES) | melting point [°C]
C#CCOc1cc(N=C(C=NOC)N2CCCC2)c(F)cc1Cl [compound 190, 2-(4-chloro-2-fluoro-5-propargyloxyphenylimino)-2-(pyrrolidine-1-yl)acetaldehyde O-methyloxime] | 73 to 75
CCOC(=O)C(C)Oc1cc(N=C(C(N)=O)N2CCCC2)c(Cl)cc1Cl (centres unmarked) [compound 293, 2-[2,4-dichloro-5-(1-ethoxycarbonylethoxy)phenylimino]-2-(pyrrolidine-1-yl)acetamide] | 160 to 163
